Test: xn = mol fraction of the nth substance listed
Conditions: 100 kPa, Liquid; for speed of sound: Frequency=2 MHz, Linear variable-path acoustic interferometer; for mass density: Vibrating tube method

Cc1ccc(Cl)cc1 [4-chlorotoluene] + CCCCCCCCCO
Conditions	mass density, 293.15 K [kg/m3]	mass density, 298.15 K [kg/m3]	mass density, 303.15 K [kg/m3]	mass density, 308.15 K [kg/m3]	speed of sound, 293.15 K [m/s]	speed of sound, 298.15 K [m/s]	speed of sound, 303.15 K [m/s]	speed of sound, 308.15 K [m/s]
x1 = 0.0835	842	839	835	832	1376.5	1358.3	1346.4	1322.8
x1 = 0.1905	862	858	855	851	1369.2	1347.9	1334.9	1311.7
x1 = 0.2888	881	877	873	869	1360.5	1337.3	1323.5	1300.5
x1 = 0.3983	904	900	896	891	1350	1324.8	1310.6	1287.6
x1 = 0.4948	925	921	917	912	1340.2	1313.6	1298.7	1276.4
x1 = 0.594	949	945	940	935	1330	1303	1287.9	1266
x1 = 0.6925	974	970	965	960	1321	1294.2	1278.5	1257.4
x1 = 0.7952	1003	999	994	988	1313	1287.5	1271.4	1250.9
x1 = 0.899	1035	1031	1025	1020	1308	1284.9	1267.7	1248.9
x1 = 1	1069	1065	1060	1054	1306.4	1288.2	1270	1252.1

Cc1cccc(Cl)c1 [3-chlorotoluene] + CCCCCCCCCO
Conditions	mass density, 293.15 K [kg/m3]	mass density, 298.15 K [kg/m3]	mass density, 303.15 K [kg/m3]	mass density, 308.15 K [kg/m3]	speed of sound, 293.15 K [m/s]	speed of sound, 298.15 K [m/s]	speed of sound, 303.15 K [m/s]	speed of sound, 308.15 K [m/s]
x1 = 0.0967	844	841	838	834	1374.3	1357.5	1345.4	1320.9
x1 = 0.1893	861	858	854	850	1366.3	1348.2	1335.6	1310.1
x1 = 0.2985	883	879	875	871	1355.3	1336.2	1323	1297.4
x1 = 0.3926	902	898	894	890	1345	1325.6	1310.9	1286
x1 = 0.4834	923	919	914	910	1335.2	1315.2	1300	1275.7
x1 = 0.5953	950	945	941	937	1323.7	1303.7	1288.3	1264.9
x1 = 0.6918	975	970	966	961	1315.7	1296	1280.3	1257.6
x1 = 0.7946	1004	1000	995	990	1310.2	1291.2	1274.7	1254
x1 = 0.8963	1036	1031	1027	1022	1308.7	1290.7	1273.6	1253.9
x1 = 1	1072	1067	1063	1058	1313.8	1296.5	1279.5	1261.2
